# From EP0314866A2, “Novel alkylated hormonereleasing peptides and method of treating mammals therewith” (The Administrators of The Tulane University Educational Fund, priority 1987, dated 1989)
# Test system: plasma growth hormone
# Test: Evaluation of peptides in vivo in sheep: plasma GH after IV injection of GRF analogs
# Design: species or system wether lambs
# Conditions: lambs injected intravenously at 100 ng/kg; for Plasma GH (ng/ml) Post-inj Mean: two hours after treatment, means of 8 samples/animal from 8 animals
# Method: The purpose of this experiment is to compare the GH releasing activities of several GRF analogs selected for expected high potency and the lack of either a terminal amide or a D-amino acid. The analogs to be compared in wether lambs at 100 ng/kg (IV) are tri-isopropyl-GRF(1-29)-NH₂, tri-isopropyl-GRF(1-29)-OH, tri-isopropyl-GRF(1-40)OH, D-ala², arg^12,21-GRF (1-29)-OH, D-ala², arg^12,21-GRF(1-29)-NH₂, GRF(1-40)-OH and GRF(1-29)-NH₂
# A balanced 8 x 8 Latin square design will be used to test the following 8 treatments:
# The diet used in these evaluations is a standard sheep diet (pelleted) and fresh water ad libitum. All animals are fed one daily.
# The animals are individually identified by numbered ear tags and held in numbered metabolism cages.
# Sheep are maintained in individual metabolism cages at all times. Each sheep has previously received an indwelling jugular cannula which is flushed daily with heparinized (400-800 IU/ml) sterile saline to help maintain patency.
# All compounds are solubilized at 5 ug/ml in sterile saline containing 1% Tween 80 and injected intravenously at 100 ng/kg. Control lambs receive equal volumes of the vehicle only. The drugs are prepared each day just prior to injection to minimize sticking to the vials.
# Blood is collected in heparinized tubes at 15 minute intervals for one hours prior to and for two hours after the treatments are administered. Plasma samples are removed by centrifugation and frozen.
# Body weights of each animal is taken at the start of the experiment and once during treatment.
# Blood samples are taken from each animal at 15 minute intervals for 3 hours each day during the 8 day trial period. The samples are analyzed for plasma growth hormone (ng/ml). Data obtained are reported below as near values obtained for each treatment.
Compound,Plasma GH (ng/ml) Peak,Plasma GH (ng/ml) Post-inj Mean
"CC[C@H](C)[C@H](NC(=O)[C@H](C)NC(=O)[C@H](CC(=O)O)NC(=O)[C@H](C)NC(=O)[C@H](Cc1ccc(O)cc1)NC(C)C)C(=O)N[C@@H](Cc1ccccc1)C(=O)N[C@H](C(=O)N[C@@H](CC(N)=O)C(=O)N[C@@H](CO)C(=O)N[C@@H](Cc1ccc(O)cc1)C(=O)N[C@@H](CCCNC(=N)N)C(=O)N[C@@H](CCCCNC(C)C)C(=O)N[C@H](C(=O)N[C@@H](CC(C)C)C(=O)NCC(=O)N[C@@H](CCC(N)=O)C(=O)N[C@@H](CC(C)C)C(=O)N[C@@H](CO)C(=O)N[C@@H](C)C(=O)N[C@@H](CCCNC(=N)N)C(=O)N[C@@H](CCCCNC(C)C)C(=O)N[C@@H](CC(C)C)C(=O)N[C@@H](CC(C)C)C(=O)N[C@@H](CCC(N)=O)C(=O)N[C@@H](CC(=O)O)C(=O)N[C@H](C(=O)N[C@@H](CCSC)C(=O)N[C@@H](CO)C(=O)N[C@@H](CCCNC(=N)N)C(=O)N[C@@H](CCC(N)=O)C(=O)N[C@@H](CCC(N)=O)C(=O)NCC(=O)N[C@@H](CCC(=O)O)C(=O)N[C@@H](CO)C(=O)N[C@@H](CC(N)=O)C(=O)N[C@@H](CCC(N)=O)C(=O)N[C@@H](CCC(=O)O)C(=O)N[C@@H](CCCNC(=N)N)C(=O)NCC(=O)N[C@@H](C)C(=O)O)[C@@H](C)CC)C(C)C)[C@@H](C)O [tri-isopropyl-GRF(1-40)-OH, [N ^α-Isopropyl-Tyr¹, N ^ε-isopropyl-Lys^12,21]GRF(1-40)OH]",108.6 ng/mL,34.0 ng/mL
CC[C@H](C)[C@H](NC(=O)[C@H](C)NC(=O)[C@H](CC(=O)O)NC(=O)[C@H](C)NC(=O)[C@@H](N)Cc1ccc(O)cc1)C(=O)N[C@@H](Cc1ccccc1)C(=O)N[C@H](C(=O)N[C@@H](CC(N)=O)C(=O)N[C@@H](CO)C(=O)N[C@@H](Cc1ccc(O)cc1)C(=O)N[C@@H](CCCNC(=N)N)C(=O)N[C@@H](CCCCN)C(=O)N[C@H](C(=O)N[C@@H](CC(C)C)C(=O)NCC(=O)N[C@@H](CCC(N)=O)C(=O)N[C@@H](CC(C)C)C(=O)N[C@@H](CO)C(=O)N[C@@H](C)C(=O)N[C@@H](CCCNC(=N)N)C(=O)N[C@@H](CCCCN)C(=O)N[C@@H](CC(C)C)C(=O)N[C@@H](CC(C)C)C(=O)N[C@@H](CCC(N)=O)C(=O)N[C@@H](CC(=O)O)C(=O)N[C@H](C(=O)N[C@@H](CCSC)C(=O)N[C@@H](CO)C(=O)N[C@@H](CCCNC(=N)N)C(=O)N[C@@H](CCC(N)=O)C(=O)N[C@@H](CCC(N)=O)C(=O)NCC(=O)N[C@@H](CCC(=O)O)C(=O)N[C@@H](CO)C(=O)N[C@@H](CC(N)=O)C(=O)N[C@@H](CCC(N)=O)C(=O)N[C@@H](CCC(=O)O)C(=O)N[C@@H](CCCNC(=N)N)C(=O)NCC(=O)N[C@@H](C)C(=O)O)[C@@H](C)CC)C(C)C)[C@@H](C)O [GRF(1-40)-OH],92.3 ng/mL,25.5 ng/mL
